For the assay, the system named is Spontaneously hypertensive rats. The assay is described as follows: Antihypertensive activity: systolic blood pressure by tail cuff method. In kind it is in vivo. As to conditions: maximum at 1-4 hours post dose. Here is the method:
Systolic blood pressures were recorded by a modification of the tail cuff method described by I.M. Claxton, M.G. Palfreyman, R.H. Poyser, R.L. Whiting, European Journal of Pharmacology, 37, 179 (1976). A W+W BP recorder, model 8005 was used to display pulses. Prior to all measurements rats were placed in a heated environment (33.5 ± 0.5 °C) before transfer to a restraining cage. Each determination of blood pressure was the mean of at least 6 readings. Spontaneously hypertensive rats (ages 12-18 weeks) with systolic blood pressures >180 mmHg were considered hypertensive.

For `Cn1nc(N)nc1N[C@@H]1c2cc(C#N)ccc2OC(C)(C)[C@H]1O` (relative stereo) [Example E1, N⁵-[trans-4-(6-Cyano-2,3-dihydro-2,2-dimethyl-2H-benzopyran-3-ol)]-1-methyl-1H-1,2,4-triazole-3,5-diamine], the “% b.p. fall” value (Dose 0.1 mg/kg) was determined as 30%.
Turning to `Cn1ncnc1N[C@@H]1c2cc(C#N)ccc2OC(C)(C)[C@H]1O` (relative stereo) [Example E2, trans-N⁵-4-[6-cyano-3,4-dihydro-2,2-dimethyl-2H-benzopyran-3-ol]amino-1-methyl-1H-1,2,4-triazole], the “% b.p. fall” value (Dose 0.3 mg/kg) came to 22%.
For the compound `Cc1nc(N[C@@H]2c3cc(C#N)ccc3OC(C)(C)[C@H]2O)n(C)n1` (relative stereo) [Example E4, trans-N⁵-4-[6-Cyano-3,4-dihydro-2,2-dimethyl-2H-benzopyran-3-ol]amino-1,3-dimethyl-1H-1,2,4-triazole], the “% b.p. fall” value (Dose 1.0 mg/kg) was 22%.
For `Cn1nc(N)nc1N[C@@H]1c2cc(C#N)ccc2OC(C)(C)[C@H]1O` (relative stereo) [Example E7, (3S,4R)-N⁵-[trans-4-(6-cyano-3,4-dihydro-2,2-dimethyl-2H-1-benzopyran-3-ol)]-1-methyl-1H-1,2,4-triazole-3,5-diamine], the “% b.p. fall” value (Dose 0.05 mg/kg) is reported as 45%.

The values above are taken from patent EP0399834B1, “1,2,4-Triazole derivatives, their preparation and their use for treating hypertension or respiratory tract disorders” (Beecham Group p.l.c., priority 1989, dated 1990).
